The values that follow come from US20240226342A1, “REACTIVE OXYGEN SPECIES IMAGING AGENTS” (Washington University, priority 2022, published 2024).

A short description of series [1]: Dynamic PET/MR brain imaging of normal rhesus monkey. It counts as in vivo. On the procedure:
FIG. 12A-FIG. 12B is an exemplary embodiment showing dynamic MR/PET brain imaging of normal rhesus monkey (10 Kg) following intravenous injection of 18F-SLN-128 (5.8 mCi) over 2 h in accordance with the present disclosure. FIG. 12A includes images showing summation of PET data over 10 min and co-registered with T2-weighted MR image of the monkey for anatomical reference. FIG. 12B is a line graph showing SUVs as a time-activity curve for the tracer influx and clearance from important regions of the brain.
Of note, these NHP brain SUV values are 2.5-fold higher than reported for ^18F-ROStrace thus likely to translate into higher contrast brain images compared with ^18F-ROStrace (SUV=1.35). […] Tissue time-activity curves (TACs) also show fast initial uptake with maximum projection of activity at 7-10 min followed by clearance of ^18F-SLN-128 at later time-points from amygdala, caudate, cerebellum, cortex (frontal, insular, occipital and temporal), cerebellum, hippocampus, putamen, thalamus, and white matter of rhesus monkey brain.

Series [2] has as its system 3NP-induced ROS-mediated neurodegeneration in mice. The experiment in a line: PET/CT imaging after stereotaxic injection of 3-NP into striatum. In kind it is in vivo. As for the experimental part:
FIG. 10A-FIG. 10D is an exemplary embodiment showing preclinical PET/CT imaging in accordance with the present disclosure. C57BI6 mice (n=4) were injected with either 3-Nitropropionic acid (3-NP) or saline into striatum. 72 h following treatments, 18F-SLN-128 was injected via tail-vein into mice. FIG. 10A includes PET/CT images shown as a summation frames from 45-60 min. Dynamic PET images acquired from 0 min to 60 min post tail-vein injection. Left: Control; Right: 3-NP treated (1 mg/kg, 72 h post treatment). FIG. 10B is a bar graph showing uantified uptake (% ID/cm^3) from PET imaging. FIG. 10C includes images of brains extracted from mice, fixed in PFA/sucrose; sectioned (40 μm); stained with Cresyl violet; Arrow indicates injection site. […]
Systemic administration of LPS induces oxidative stress and resulting a release of inflammatory cytokines, sustained microglial activation, and neuronal cell loss in brain areas, such as the hippocampus, cerebral cortex, substantia nigra, ventral tegmental area, and thalamus, alters the levels of neurotransmitters in adult animals, and cerebellum. […] Finally, the brain uptake (see e.g., FIG. 9C) derived from PET imaging also correlated with 60 min post imaging quantified uptake (see e.g., FIG. 9D) indicating potential of the radiotracer for imaging endotoxin mediated brain inflammation in vivo. […]

Structures are written as SMILES.

Take `COc1ccc2c(c1)N(C)C(c1ccc(O)c(OCC[18F])c1)c1cccn1-2` (centres unmarked) [18F-SLN-128]: the “clearance from brain regions” value in series [1] (later time points) is “excreted from critical regions at later-time points”. The “nonspecific retention in normal monkey brain” value in series [1] (over 2 h) is “Insignificant nonspecific retention”. The “time of maximum SUV” value in series [1] (rhesus monkey) is 7 to 10 min. In addition, in series [1] (rhesus monkey, in vivo), the “NHP brain SUV relative to 18F-ROStrace” value is 2.5 fold. Also, the “maximum Standard Uptake Value (SUV) in brain” value in series [1] (rhesus monkey, intravenous injection) was 3.5. The “metabolites in venous blood (radio-HPLC, γ-counter)” value in series [1] (samples at an interval of 3 min over 2 hours) is “did not show any metabolite”. Also, the “correlation of brain uptake with immunohistochemistry” value in series [2] (3-NP treated mice) was “maps with neurodegeneration and microglial activation in the striatum regions”. In addition, the “retention in brains of 3-NP treated mice compared with saline treated” value in series [2] (72 h post 3-NP into striatum) is 2 fold.
